Earlier results in patent publication US20150099751A1, “IN SITU GEL LOADED WITH PHOSPHODIESTERASE TYPE V INHIBITORS NANOEMULSION” (KING ABDULAZIZ UNIVERSITY, priority 2013, published 2015).

Experiments:
[1] = tested on: isolated human corpus cavernosum; conditions: at the recommended doses
[2] = tested on: male lower urinary tract syndrome (LUTS); conditions: after 12 weeks of treatment
[3] = administration by mouth (orally)

CCCc1nn(C)c2c(=O)[nH]c(-c3cc(S(=O)(=O)N4CCN(C)CC4)ccc3OCC)nc12 [Sildenafil, 1[4ethoxy3(6.7dihydro1methyl7oxo3propyl1Hpyrazolo [4,3d]pyrimidin5yl)phenylsulfonyl]4methylpiperazine]
direct relaxant effect on the isolated human corpus cavernosum [1]: no direct relaxant effect | International Prostate Symptom Score (IPSS) and LUTS-specific quality of life (QoL) score [2]: overall improvement | bioavailability [3]: approximately 40%
